Laboratory results taken from patent US20130224234A1, “TTLL4 PEPTIDES AND VACCINES CONTAINING THE SAME” (Onco Therapy Science, Inc., priority 2010, published 2013).
“Also recorded” adds a separate entry of the source.

Tests used:
[1] = system: peptide-pulsed TISI cells; test: In vitro CTL induction, IFN-gamma ELISPOT assay (HLA-A*2402); assay type: cell-based, human; details: CTLs induced with peptide from HLA-A*2402 positive donor, peptide-pulsed TISI vs control
Description: Monocyte-derived dendritic cells (DCs) were used as antigen-presenting cells to induce cytotoxic T lymphocyte (CTL) responses against peptides presented on human leukocyte antigen (HLA). DCs were generated in vitro as described elsewhere (Nakahara S et al., Cancer Res 2003, 63(14): 4112-8). Specifically, peripheral blood mononuclear cells isolated from a normal volunteer (HLA-A*2402 positive) by Ficoll-Plaque (Pharmacia) solution were separated by adherence to a plastic tissue culture dish (Becton Dickinson) so as to enrich them as the monocyte fraction. The monocyte-enriched population was cultured in the presence of 1000 U/ml of granulocyte-macrophage colony-stimulating factor (R&D System) and 1000 U/ml of interleukin (IL)-4 (R&D System) in AIM-V Medium (Invitrogen) containing 2% heat-inactivated autologous serum (AS). After 7 days of culture, the cytokine-induced DCs were pulsed with 20 micro-g/ml of each of the synthesized peptides in the presence of 3 micro-g/ml of beta 2-microglobulin for 3 hr at 37 degrees C. in AIM-V Medium. The generated cells appeared to express DC-associated molecules, such as CD80, CD83, CD86 and HLA class II, on their cell surfaces (data not shown). These peptide-pulsed DCs were then inactivated by X-irradiation (20 Gy) and mixing at a 1:20 ratio with autologous CD8+ T cells, obtained by positive selection with CD8 Positive Isolation Kit (Dynal). These cultures were set up in 48-well plates (Corning); each well contained 1.5×10^4 peptide-pulsed DCs, 3×10^5 CD8+ T cells and 10 ng/ml of IL-7 (R&D System) in 0.5 ml of AIM-V/2% AS medium. Three days later, these cultures were supplemented with IL-2 (CHIRON) to a final concentration of 20 IU/ml. On day 7 and 14, the T cells were further stimulated with the autologous peptide-pulsed DCs. The DCs were prepared each time by the same way described above. CTL was tested against peptide-pulsed TISI cells after the 3rd round of peptide stimulation on day 21 (Tanaka H et al., Br J Cancer 2001, 84(1): 94-9; Umano Y et al., Br J Cancer 2001, 84(8): 1052-7; Uchida N et al., Clin Cancer Res 2004, 10(24): 8577-86; Suda T et al., Cancer Sci 2006, 97(5): 411-9; Watanabe T et al., Cancer Sci 2005, 96(8): 498-506).
(§1) Specifically, peptide-pulsed TISI (1×10^4/well) was prepared as stimulator cells. Cultured cells in 48 wells were used as responder cells. IFN-gamma ELISPOT assay and IFN-gamma ELISA assay were performed under manufacture procedure.
CTLs for those peptides derived from TTLL4 were generated according to the protocols as described in “Materials and Methods”.

[2] = system: peptide-pulsed TISI cells; test: IFN-gamma ELISA assay of CTL clones (HLA-A*2402); assay type: cell-based, human; details: CTL clones by limiting dilution, target cells pulsed with peptide vs control
Method: The dilutions were made to have 0.3, 1, and 3 CTLs/well in 96 round-bottomed micro titer plate (Nalge Nunc International). CTLs were cultured with 1×10^4 cells/well of 2 kinds of human B-lymphoblastoid cell lines, 30 ng/ml of anti-CD3 antibody, and 125 U/ml of IL-2 in a total of […] of AIM-V Medium containing 5% AS. 50 micro-l/well of IL-2 were added to the medium 10 days later so to reach a final concentration of 125 U/ml IL-2. CTL activity was tested on the 14th day, and CTL clones were expanded using the same method as described above (Uchida N et al., Clin Cancer Res 2004, 10(24): 8577-86; Suda T et al., Cancer Sci 2006, 97(5): 411-9; Watanabe T et al., Cancer Sci 2005, 96(8): 498-506).
as §1
(§2) CTL activity of these CTL lines was determined by IFN-gamma ELISA assay (FIG. 2a-f). […] Furthermore, the CTL clones were established by limiting dilution from the CTL lines as described in “Materials and Methods”, and IFN-gamma production from the CTL clones against target cells pulsed peptide was determined by IFN-gamma ELISA assay. […] (FIG. 3a-d).

[3] = system: peptide-pulsed TISI cells; test: IFN-gamma ELISA assay of CTL lines (HLA-A*2402); assay type: cell-based, human; details: CTL lines stimulated with peptide, target cells pulsed with peptide vs without peptide pulse
Method: CTLs were expanded in culture using the method similar to the one described by Riddell et al. (Walter E A et al., N Engl J Med 1995 333(16): 1038-44; Riddell S R et al., Nat Med 1996, 2(2): 216-23). A total of 5×10^4 CTLs were suspended in 25 ml of AIM-V/5% AS medium with 2 kinds of human B-lymphoblastoid cell lines, inactivated by Mitomycin C, in the presence of 40 ng/ml of anti-CD3 monoclonal antibody (Pharmingen). One day after initiating the cultures, 120 IU/ml of IL-2 were added to the cultures. The cultures were fed with fresh AIM-V/5% AS medium containing 30 IU/ml of IL-2 on days 5, 8 and 11 (Tanaka H et al., Br J Cancer 2001, 84(1): 94-9; Umano Y et al., Br J Cancer 2001, 84(8): 1052-7; Uchida N et al., Clin Cancer Res 2004, 10(24): 8577-86; Suda T et al., Cancer Sci 2006, 97(5): 411-9; Watanabe T et al., Cancer Sci 2005, 96(8): 498-506).
as §1, §2

[4] = system: COS7 cells transfected with TTLL4 and HLA-A*2402; test: Specific CTL activity against target cells expressing TTLL4 and HLA-A*2402; assay type: cell-based, African green monkey; details: for Specific CTL activity against COS7 cells transfected with both TTLL4 and HLA-A*2402: CTL line (9-103) or CTL clones (10-103, 10-773) established with peptide; for Specific CTL activity against control COS7 cells expressing either HLA-A*2402 or TTLL4: controls: COS7 transfected with only full length TTLL4 or only HLA-A*2402
Description: The cDNA encoding an open reading frame of target genes or HLA-A*2402 was amplified by PCR. The PCR-amplified product was cloned into a vector. The plasmids were transfected into COS7, which is the target genes and HLA-A*2402-null cell line, using lipofectamine 2000 (Invitrogen) according to the manufacturer's recommended procedures. After 2 days from transfection, the transfected cells were harvested with versene (Invitrogen) and used as the target cells (5×10^4 cells/well) for CTL activity assay.
The established CTL lines and clones raised against each peptide were examined for the ability to recognize target cells that express TTLL4 and HLA-A*2402 molecule. […] COS7 cells transfected with either full length of TTLL4 or HLA-A*2402 were prepared as the controls.

CYLHSLPDLF [SEQ ID NO: 20]
Peptide specific CTL activity (IFN-gamma production, ELISPOT) ([1]; listed as TTLL4-A24-10-103): potent IFN-gamma production; also recorded: significant and specific CTL activity
IFN-gamma production of CTL clones (ELISA) ([2]; listed as TTLL4-A24-10-103): Potent IFN-gamma productions
IFN-gamma production of CTL lines (ELISA) [3]: potent IFN-gamma production
Specific CTL activity against COS7 cells transfected with both TTLL4 and HLA-A*2402 ([4]; listed as TTLL4-A24-10-103): specific CTL activity; also recorded: potent CTL activity
Specific CTL activity against control COS7 cells expressing either HLA-A*2402 or TTLL4 [4]: no significant specific CTL activity was detected

SYDPLRIYLF [SEQ ID NO: 21]
Peptide specific CTL activity (IFN-gamma production, ELISPOT) ([1]; listed as TTLL4-A24-10-773): potent IFN-gamma production; also recorded: significant and specific CTL activity
IFN-gamma production of CTL clones (ELISA) ([2]; listed as TTLL4-A24-10-773): Potent IFN-gamma productions
IFN-gamma production of CTL lines (ELISA) [3]: potent IFN-gamma production
Specific CTL activity against COS7 cells transfected with both TTLL4 and HLA-A*2402 ([4]; listed as TTLL4-A24-10-773): specific CTL activity; also recorded: potent CTL activity
Specific CTL activity against control COS7 cells expressing either HLA-A*2402 or TTLL4 [4]: no significant specific CTL activity was detected

AYFFCPSTL [SEQ ID NO: 6]
Peptide specific CTL activity (IFN-gamma production, ELISPOT) ([1]; listed as TTLL4-A24-9-79): potent IFN-gamma production; also recorded: significant and specific CTL activity
IFN-gamma production of CTL clones (ELISA) ([2]; listed as TTLL4-A24-9-79): Potent IFN-gamma productions
IFN-gamma production of CTL lines (ELISA) [3]: potent IFN-gamma production

RYLHKPYLI [SEQ ID NO: 1]
Peptide specific CTL activity (IFN-gamma production, ELISPOT) ([1]; listed as TTLL4-A24-9-750): potent IFN-gamma production; also recorded: significant and specific CTL activity
IFN-gamma production of CTL clones (ELISA) ([2]; listed as TTLL4-A24-9-750): Potent IFN-gamma productions
IFN-gamma production of CTL lines (ELISA) [3]: potent IFN-gamma production
